The structures appear in SMILES notation. Residues, ends and D or L forms follow the SMILES beside them. *: point of attachment. Boc = CC(C)(C)OC(=O)*

In the case of `CC(C)OC(=O)c1cc(N=C=O)c(F)cc1Cl`, the melting point (commonly the temperature of the solid-liquid transition) lay within 41 to 43 °C. Regarding `CC1(C)CN(Cc2cc(F)ccc2F)c2cc(-c3ccc(C(=O)N4CCC[C@H]4CN4CCCC4)cc3)cnc2N1`, the melting point was in the range of 74 to 77 °C. Next, `CC(C(N)=O)c1cccc2c1Oc1ccccc1CC2=O` (stereo not given): 177 to 178 °C. Next, `CC(C)(C)OC(=O)N1CCN(C(=O)c2ccncc2)CC1`: 139 to 140 °C.

Turning to `Cc1c2n(c3ccccc13)C(=O)C(Cc1cn(C)cn1)CC2` (stereo not given), the melting point is 99 to 100 °C.

`CCOc1ccc(C=C(CS)C(=O)NCCC(=O)O)cc1` displayed a melting point of 148 °C. Next, `COC(=O)CCn1c(C(=O)OCc2ccccc2)cc2c(C)c(C)c(OC)cc21`: 198 °C. Turning to `COC(=O)C1=C(C)NC(C)=C(C(=O)OCC(C)(C)CN(C)C)C1c1cccc([N+](=O)[O-])c1Cl` (stereo not given), the melting point was in the range of 167 to 169 °C.

Compound `O=C1CN[C@@H](c2ccccc2)[C@@H](c2ccccc2)O1` registered a melting point of 139 °C. Next, `CCCc1c(SCCCCSc2nc3ccc(C(=O)O)cc3[nH]2)ccc(C(C)=O)c1O`: 90 to 95 °C; `CC1(C)Cc2cc(C3=NNC(=O)C4CC34)ccc2NC1=O` (stereo not given): 275 to 277 °C; `CN1C(CCCCCBr)Nc2cc(Cl)c(S(=O)(=O)NCc3ccccc3)cc2S1(=O)=O` (stereo not given): 141 to 142 °C. Turning to `Cn1cc(-c2cccc(Cl)c2)c(=O)c(-c2ccccc2Cl)c1`, the melting point is 160 to 161 °C.

In the case of `O=C(O)c1nc2n(n1)-c1cccnc1N(C1CCCCC1)C2`, the melting point was in the range of 170 to 176 °C.

For `O=C(NCCc1c[nH]c2ccccc12)Oc1ccccc1`, the melting point was 44 to 46 °C. In turn, `O=C(O)CCC(=O)NCC(=O)N1c2ccccc2N(Cc2ccccc2)C(=O)[C@H]2CCC[C@H]21` (relative stereo) returned a melting point of 148 to 151 °C. For `CC(C)N1CC(CCl)C(c2ccccc2)(c2ccccc2)C1=O` (stereo not given) the value was 114 to 116 °C; for `Cc1ccc(S(=O)(=O)N(CCO)c2cc(C)cc([N+](=O)[O-])c2N)cc1`, 201 °C; for `O=CC(CC(=O)O)NC(=O)[C@@H]1CCCN1C(=O)c1nc(CCc2ccccc2)c[nH]1` (stereo not given in full), 102 to 104 °C. Next, `C=CCc1c(OCC=Cc2ccccc2)ccc2c1CCC(=O)N2CC=Cc1ccccc1`: 66 to 68 °C; `CCS(=O)(=O)c1ccc(-c2cnn(-c3cccc(Cl)c3)c(=O)c2C2CCCCC2)cc1`: 85 to 90 °C. Next, `COC(=O)c1cccc2nc(SCCCCCCCCC(=O)Nc3c(SC)cc(C)nc3SC)oc12`: 126 to 128 °C; `COC(=O)c1cccc2c1C(Cc1ccnc(F)c1)(Cc1ccnc(F)c1)c1ccccc1-2`: 126 to 127 °C. `CC(=O)Nc1cccc(-c2cnc(N(C)C)nc2)c1` registered a melting point of 183 to 188 °C. As for `N[C@@H](Cc1ccccc1)C(=O)NC(=O)N(CCCl)N=O`, the melting point fell in the range of 113 to 115 °C. `O=C(N[C@@H](Cn1cccn1)C(=O)O)OCc1ccccc1` gave a melting point of 166 to 168 °C. As for `NC(=O)N(O)CCNC(=O)c1cc2ccccc2o1`, the melting point was in the range of 181 to 182 °C. Next, `C=C(C)C(=O)Oc1cccc(-c2cccc(OC(=O)C(=C)C)c2)c1`: 70 °C.

`CCOP(=O)(CC(=O)Nc1cc2c(Nc3ccc(Cl)c(Cl)c3)ncnc2cn1)OCC` had a melting point of 121 to 124 °C. Consider `COC(=O)[C@H](Cc1cc(I)c(OCCCBr)c(I)c1)NC(=O)OC(C)(C)C`, for which the melting point lay in the range of 102 to 103 °C. `COC(=O)c1cccc(-c2ncc(O)cn2)c1` yielded a melting point of 219 to 223 °C. In the case of `COC(=O)c1cc(-n2c(-c3ccccc3)cc3c2CCc2ccccc2-3)ccc1O`, the melting point fell in the range of 164 to 166 °C.

`CCC1(COC(=O)c2cccc3ccccc23)COC1`: the melting point was 62 °C. Take `CC(=O)Nc1ccc(C(C)(C)C)cc1OC(C)=O`: the melting point was 109 to 110 °C. Next, `CC(C)(C)OC(=O)NCC(=O)NC(Cc1ccc(O)cc1)C(=O)NC(CCCCN)C(=O)O` (stereo not drawn) (Boc-Gly-Tyr-Lys-OH; configuration not given here): greater than 200 °C. `O=C(O)[C@@H]1C[C@H]2C[C@@H](C=Cc3nsnc3O)CC[C@H]2CN1` (racemic) yielded a melting point of 239 to 242 °C. The compound `CCN(SN(C)C=Nc1ccc(Cl)cc1C)c1ccccc1` gave a melting point of 51.5 to 53 °C. Next, `CNC(=O)c1c(C)c([N+](=O)[O-])cc2nc(OC)c(OC)nc12`: 205 to 206 °C. In turn, `O=c1[nH]c2ccc3ccccc3c2n(CCc2ccccc2)c1=O` yielded a melting point of 268 °C. Consider `COCCNC(=O)c1cccc(-c2cccc3cc(Cc4cc(F)cc(Cl)c4)sc23)c1F`, for which the melting point is 124 to 125 °C. Compound `N#CC(Cc1ccc(O)cc1)c1noc2cc(O)ccc12` (stereo not given) came in with a melting point of 214 °C. For `CC(C)(C)OC(=O)NC(N)Cc1ccccc1` (stereo not given), the melting point was 40 to 50 °C. `C=C(Cl)C[C@@H](CC(=O)N(CC(=O)N(C)CCc1ccccn1)CC1CCCCC1)C(=O)N[C@@H](CC1CCCCC1)[C@@H](O)[C@@H](O)CC(C)C`: the melting point amounted to 140 °C. In the case of `Cc1cc2nc3c(nc2cc1[N+](=O)[O-])SC(=C(C#N)C#N)S3`, the melting point lay within 283 to 284 °C. Next, `Cc1oc(-c2ccccc2)nc1COc1ccc(Cn2cc(C=O)c(-c3ccccc3)c2)cc1`: 117 to 118 °C; `Nc1ccccc1-c1cc2ccc(Cl)cc2[nH]c1=O`: 155 to 157 °C; `CC(=O)Oc1ccccc1-c1ccc(=O)[nH]n1`: 181 to 184 °C. Regarding `CCCCCCCCCCCc1nccn1-c1nc(-c2ccc(Cl)cc2)c(CCCOc2ccccc2OC)o1`, the melting point lay within 53 to 54 °C.

Regarding `O=C(CCC(=O)N1CCC(c2ccc(Cl)cc2)CC1)c1ccc2c(c1)CCN(CC1CCCCC1)CC2`, the melting point was 140 to 141 °C. In the case of `Fc1ccc(-c2nc(S)nc(-c3ccccn3)n2)cc1`, the melting point was greater than 270 °C.

The compound `O=Cc1c(Cl)nc(-c2ccccc2)n1Cc1ccc(Br)cc1` displayed a melting point of 92 to 95 °C. Regarding `CCCn1nc(C(C)C)c(C(=O)O)c1Cc1ccc(-c2ccccc2NS(=O)(=O)C(F)(F)F)cc1`, the melting point is 75 to 78 °C. For `CC(=O)N1CCN(c2ccc(Nc3nccc(-c4sc(-c5ccc(N6CCOCC6)cc5)nc4C)n3)cc2)CC1` the value was 250 to 252 °C; for `COc1ccc(C2(C(C)(C)O)CCN(C)CC2)cc1`, 114 to 115 °C.

The compound `CN(CCc1c[nH]c2ccc(CNS(C)(=O)=O)cc12)C(=O)OCc1ccccc1` showed a melting point of 118 to 120 °C. Next, `CCOP(=O)(Cc1ccc(NC(=O)CCc2cnoc2-c2ccc(Cl)cc2)cc1)OCC`: 138 to 139 °C. Compound `CCCCSc1nc(N)c(C#N)s1` yielded a melting point of 115 to 117 °C. On to `O=C(Nc1ccc(Oc2ncnc3cc4c(cc23)OCCOCCOCCO4)c(F)c1)c1c[nH]cc(-c2ccc(F)cc2)c1=O`, for which the melting point was in the range of 188 to 190 °C. Consider `COc1ccc(CNc2nc(NCCCc3ccc(C(C)=O)cc3)nc3ncccc23)cc1OC`, for which the melting point fell in the range of 184 to 185 °C. Compound `CCOc1cc(OCC)nc(-c2nsc3ccc(-n4c(=O)cc(C(F)(F)F)n(C)c4=O)cc23)n1` came in with a melting point of 197 to 200 °C. Next, `C=C(C)OC1CCC(=O)N1S(=O)(=O)c1ccccc1` (stereo not given): 54 to 56 °C. For `O=c1ccn(CC(O)CO)c(C(OC2CCCCO2)c2ccccc2)c1OCc1ccccc1` (stereo not given) the value was 190 to 206 °C; for `Cc1cccc2cc3c(=O)n(CCc4cn(C(=O)NCCN(C)C)c5ccccc45)cc(C(=O)NCCN(C)C)c3nc12`, 182 to 185 °C. Next, `CC(C)(C)OC(=O)c1ccc[nH]1`: 87 to 89 °C; `N=C(Cl)c1c(Cc2ccc(Cl)cc2)nc2ccc(I)cc2c1O`: 172 to 174 °C. `Nc1ncc(-c2cccc3ccccc23)c(N)n1` yielded a melting point of 171 to 173 °C.

The compound `Cc1ccc(S(=O)(=O)NCCc2ccc(C(=O)CBr)cc2)cc1` returned a melting point of 133 to 136 °C. For `CCOc1nc(NCCN2CCCC2)nc(Nc2ccc(F)c(Cl)c2)n1` the value was 111 to 113 °C; for `N#CCC1CC(=O)N(c2ccc(F)cc2)C1=O` (stereo not given), 97 °C. For `CS(=O)(=O)Nc1cc2occ(C(=O)Nc3nnn[nH]3)c(=O)c2cc1Oc1ccccc1` the value was greater than 250 °C. For `CC(=O)NC1=NN(c2ccc(Cl)cc2)CC1` the value was 171 to 173 °C; for `CCOC(=O)C1=C(C)N=C(SCc2ccc(OC)cc2)N(C(=O)OCC)C1c1cccc(OC)c1` (stereo not given), 79 to 81 °C; for `COc1ccc(-c2sc(N)c(C(=O)c3ccc(Cl)cc3)c2CN(C2CCCCC2)C2CCCCC2)cc1`, 178 to 182 °C.

`CCC[C@H](C)C(=O)O[C@H]1C[C@H](O)C=C2C=C[C@H](C)[C@H](CC[C@@H]3C[C@@H](O)CC(=O)O3)[C@H]21` registered a melting point of 134 °C. Next, `O=c1n(-c2ccccc2)nc2n1-c1ccccc1Oc1ccccc1-2`: 176 to 177 °C; `Cc1nc2ccccc2n1CCc1ccccc1`: 104 to 106 °C; `Nc1cc(C#Cc2ccccc2)c(-c2cc([N+](=O)[O-])c(N)cc2C#Cc2ccccc2)cc1[N+](=O)[O-]`: 252 to 253 °C. Next, `CS(=O)(=O)Nn1c(=O)[nH]c2cc(C(F)(F)F)c(CCCO)cc2c1=O`: 243 to 247 °C; `Cn1nnnc1SCC(CS(=O)(=O)c1ccc(-c2ccc(Cl)cc2)cc1)C(=O)O` (stereo not given): 98 to 100 °C; `O=C(NOCc1ccccc1)c1cc(F)c(Cl)nc1Cl`: 176 to 177 °C. Compound `CCCOc1ccccc1-c1cc(C)c(C(=O)O)c(=O)[nH]1` yielded a melting point of 175 to 177 °C. Compound `COC(=O)c1ccc(C(Cc2cc(C)ccc2N2CCCCC2)C(N)=O)cc1` (stereo not given) gave a melting point of 124 to 126 °C. Next, `O=C(O)CCCNC(=O)c1ccccc1NC(=O)c1ccc(Cl)cc1`: 182 to 184 °C.

`CCCCc1nc(C(C)O)c(C(=O)OCC)[nH]1` (stereo not given): the melting point worked out at 149 °C. For `CC1=Nc2c(C)nn(C)c2C2=NCC(C)(C)N12` the value was 280 to 283 °C.
